{"source": "ChEMBL document CHEMBL1136223", "about": "“Reversed hydroxamate-bearing thermolysin inhibitors mimic a high-energy intermediate along the enzyme-catalyzed proteolytic reaction pathway” (Bioorg Med Chem Lett, 2003)", "key": {"Thermolysin [1]": {"molecular_target": "T1, Thermolysin (Bacillus thermoproteolyticus, UniProt P00800)", "T1 sequence (P00800 whole entry)": "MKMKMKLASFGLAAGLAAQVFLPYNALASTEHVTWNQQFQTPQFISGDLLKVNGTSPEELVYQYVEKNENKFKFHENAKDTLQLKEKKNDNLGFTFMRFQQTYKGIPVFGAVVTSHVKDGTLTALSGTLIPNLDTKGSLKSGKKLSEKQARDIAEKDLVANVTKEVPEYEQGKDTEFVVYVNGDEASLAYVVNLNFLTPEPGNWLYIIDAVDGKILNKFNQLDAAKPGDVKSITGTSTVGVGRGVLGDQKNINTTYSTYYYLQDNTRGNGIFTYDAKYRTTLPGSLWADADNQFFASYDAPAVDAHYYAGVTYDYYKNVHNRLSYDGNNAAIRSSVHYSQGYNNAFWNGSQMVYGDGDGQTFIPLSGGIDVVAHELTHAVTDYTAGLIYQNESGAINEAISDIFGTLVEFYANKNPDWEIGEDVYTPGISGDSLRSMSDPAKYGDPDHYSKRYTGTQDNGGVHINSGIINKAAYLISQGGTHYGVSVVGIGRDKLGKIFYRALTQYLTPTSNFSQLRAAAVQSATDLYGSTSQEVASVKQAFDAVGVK", "assay": "Inhibitory activity against thermolysin"}, "Thermolysin [2]": {"molecular_target": "T1, Thermolysin", "assay": "Inhibitory activity against thermolysin using N-[3-(2-furyl)acryloyl]-Gly-l-leucineamide (FA-Gly-l-Leu-NH2) as substrate"}, "[3]": {"assay": "Ratio of Km to that of Kcat against thermolysin"}}}
{"smiles": "CC(C)C[C@H](CN(O)C=O)C(=O)NC(=O)[C@@H](N)Cc1ccccc1", "values": [{"measurement": "Ki", "setting": "Thermolysin [1]", "result": 2.4, "unit": "µM"}, {"measurement": "Ki", "setting": "Thermolysin [2]", "result": 1.84, "unit": "µM"}, {"measurement": "Km/Kcat", "setting": "[3]", "result": 20, "unit": "µM/s"}]}
{"smiles": "CC(C)C[C@H](CN(O)C=O)C(N)=O", "values": [{"measurement": "Ki", "setting": "Thermolysin [1]", "result": 20.6, "unit": "µM"}, {"measurement": "Ki", "setting": "Thermolysin [2]", "result": 52.8, "unit": "µM"}, {"measurement": "Km/Kcat", "setting": "[3]", "result": 196, "unit": "µM/s"}]}
{"smiles": "CC(C)C[C@H](CN(O)C=O)C(=O)NC(=O)[C@H](C)N", "values": [{"measurement": "Ki", "setting": "Thermolysin [1]", "result": 10.6, "unit": "µM"}, {"measurement": "Ki", "setting": "Thermolysin [2]", "result": 2.49, "unit": "µM"}, {"measurement": "Km/Kcat", "setting": "[3]", "result": 13.6, "unit": "µM/s"}]}
{"smiles": "CC(C)C[C@H](CN(O)C=O)C(=O)NC(=O)CN", "values": [{"measurement": "Ki", "setting": "Thermolysin [1]", "result": 10.9, "unit": "µM"}, {"measurement": "Ki", "setting": "Thermolysin [2]", "result": 14.7, "unit": "µM"}, {"measurement": "Km/Kcat", "setting": "[3]", "result": 165, "unit": "µM/s"}]}
{"smiles": "CC(C)C[C@H](CN(O)C=O)C(=O)NC(=O)[C@@H](C)N", "values": [{"measurement": "Ki", "setting": "Thermolysin [1]", "result": 16.6, "unit": "µM"}, {"measurement": "Ki", "setting": "Thermolysin [2]", "result": 383, "unit": "µM"}, {"measurement": "Km/Kcat", "setting": "[3]", "result": 3200, "unit": "µM/s"}]}
